Source: patent US20220087990A1, “APPLICATION OF RIFAMYCIN-QUINOLIZIDONE CONJUGATE MOLECULE AND PHARMACEUTICALLY ACCEPTABLE SALT THEREOF” (priority 2019, published 2022)
In brackets after ≈: the same amount, converted by molar mass. Entries after “also recorded” stand apart in the source; their conditions may differ. Read-outs that look alike come from different tables or passages of the source.

Legend:
Assay type in all cases: cell-based
[1] = system: methicillin-resistant Staphylococcus aureus (MRSA) isolates; experiment: MIC measured by agar dilution method (CLSI); conditions: Staphylococcus aureus, MRSA, agar dilution
Experimental: (§1) Spontaneous mutation and minimal inhibit concentration (MIC) tested by agar dilution method, the above compounds are respectively prepared into a stock solution (100X) with a concentration 100 times the highest final concentration in corresponding solvents and used on the same day. Before use, I is further diluted with DMSO; and oxacillin, rifampicin and levofloxacin are further diluted with water.
(§2) Bacterial isolates: Staphylococcus aureus isolates are retrieved from the −80° C. storage room of Micromyx Culture Collection, thawed, plated onto Tryptic Soy Agar+5% sheep blood (Remel; Lenexa, Kans.), and then incubated aerobically at 35° C. overnight. S. aureus ATCC 29213 (MRSA; MMX 0100) was included during testing only for the purpose of quality control. Test Media: The isolates were tested in both the agar dilution MIC assay and the spontaneous mutation assay using Mueller-Hinton Agar (MHA; BD/BBL; Lot No. 6229829 & 4216798). Inocula of each isolate were suspended in cation-adjusted Mueller-Hinton Broth (CAMHB) (BD/BBL; Lot Nos. 5257869 & 6258541). Sodium chloride (Sigma-Aldrich; Lot No. SLBL0434V) was added to CAMHB at a final concentration of 2% when testing oxacillin. Dilutions of bacterial cell suspensions for the purpose of performing colony counts were also made in CAMHB.
(§3) MIC measured by agar dilution method: according to the recommendation from the Clinical and Laboratory Standards Institute (CLSI), the MIC value is measured by the agar dilution method. […] Each test agent was combined with molten MHA agar (50-55° C.) at a ratio of 0.2 mL of 100× test agent to 19.8 mL agar in a sterile tube, mixed gently, and then poured into a sterile petri plate (BD Falcon). Plates were allowed to solidify at room temperature. A 0.5 McFarland standard bacterial suspension was prepared, diluted 1:10 in CAMHB, and transferred to the wells of a stainless steel replicator block before stamping onto plates containing drug, resulting in 10^4 CFU/spot. After allowing the inoculum to dry on the surface of the agar, the plates were inverted, incubated aerobically at 35° C. for 20-24 hr, and inspected for growth.

[2] = system: Staphylococcus aureus ATCC 29213; experiment: MIC measured by agar dilution method, quality control strain; conditions: strain 100, MSSA QC strain
Experimental: as §1, §2, §3
In parallel experiments, a standard bacterium suspension with a […] turbidity of 0.5 is prepared as a standard inoculum for agar dilution analysis (10^4 CFU/point). […] In this step, the broths and drugs used in the spontaneous mutation analysis are used to confirm that the concentration of the drug stock solution can inhibit the growth of the standard inoculum. The quality of the levofloxacin stock solution is controlled by a standard inoculum and levofloxacin of 8-0.008 μg/mL, and separate agar dilution analysis is performed. […]

[3] = system: Staphylococcus aureus MMX 3265, 3270, 3278, and 6312; conditions: for Cell counts (mean): 1 used if no colonies
Experimental: Each test agent stock solution was prepared at 100× the final desired test concentration for the spontaneous mutation frequency assay agar plates.
The drug/agar mixture was dispensed into sterile 150×15 mm plates (BD Falcon) to a volume of 50 mL in each plate. The target inoculum for each spontaneous mutation plate was at least 10^9 CFU. Plates were allowed to solidify at room temperature.
The inocula for the spontaneous mutation frequency assay were prepared by using sterile cotton swabs to harvest colonies from freshly grown isolates and preparing a dense cell suspension (approximately 1.70 on the turbidity meter) in 6 mL of CAMHB. The viable count of this suspension was determined by plating serial ten-fold dilutions onto MHA and taking the average of duplicate counts. For the spontaneous mutation assay, 0.25 mL of inoculum was spread onto the surface of duplicate 150×15 mm plates for each drug concentration tested, allowed to dry, and then the plates were inverted and incubated at 35° C. for 48 hr prior to counting viable colonies. The spontaneous mutation frequency was calculated using the following equation:
Spontaneous mutation frequency=average number of colonies on selected plates/total number of cells incubated onto each plate
If there were no colonies on the antibiotic selection plates, the spontaneous mutation frequency was reported as less than or equal to the mutation frequency that would have resulted from the presence of one colony (e.g. 1/total number of cells inoculated onto the plate).

[4] = system: Staphylococcus aureus ATCC 29213; experiment: MIC measured by fluid broth microdilution method (quality control); conditions: ATCC29213
[5] = isolate 3265 LEV^R RIF^S, drug 0.5 μg/mL in plates (combination 0.5 each), inoculation 5.40E+09 CFU
[6] = isolate 3265 LEV^R RIF^S, drug 2 μg/mL in plates (combination 2 each), inoculation 5.40E+09 CFU
[7] = isolate 3265 LEV^R RIF^S, drug 8 μg/mL in plates (combination 8 each), inoculation 5.40E+09 CFU
[8] = isolate 3270 LEV^R RIF^S, drug 0.5 μg/mL in plates (combination 0.5 each), inoculation 5.30E+09 CFU
[9] = isolate 3270 LEV^R RIF^S, drug 2 μg/mL in plates (combination 2 each), inoculation 5.30E+09 CFU
[10] = isolate 3270 LEV^R RIF^S, drug 8 μg/mL in plates (combination 8 each), inoculation 5.30E+09 CFU
[11] = isolate 3278 LEV^S RIF^S, drug 0.5 μg/mL in plates (combination 0.5 each), inoculation 3.80E+09 CFU
[12] = isolate 3278 LEV^S RIF^S, drug 2 μg/mL in plates (combination 2 each), inoculation 3.80E+09 CFU
[13] = isolate 3278 LEV^S RIF^S, drug 8 μg/mL in plates (combination 8 each), inoculation 3.80E+09 CFU
[14] = isolate 6312 LEV^R RIF^S, drug 0.5 μg/mL in plates (combination 0.5 each), inoculation 3.90E+09 CFU
[15] = isolate 6312 LEV^R RIF^S, drug 2 μg/mL in plates (combination 2 each), inoculation 3.90E+09 CFU
[16] = isolate 6312 LEV^R RIF^S, drug 8 μg/mL in plates (combination 8 each), inoculation 3.90E+09 CFU

CO[C@H]1/C=C/O[C@@]2(C)Oc3c(C)c(O)c4c(O)c(c(/C=N/N5CCC(N(C)C6([C@@H]7CCN(c8c(F)cn9c(=O)c(C(=O)O)cc(C%10CC%10)c9c8C)C7)CC6)CC5)c(O)c4c3C2=O)NC(=O)/C(C)=C\C=C\[C@H](C)[C@H](O)[C@@H](C)[C@@H](O)[C@@H](C)[C@H](OC(C)=O)[C@@H]1C [I]
MIC ([1]; read-out: MIC over all strains under test, 23 MRSA isolates): 0.015 µg/mL (≈ 0.0124 µM)
MIC ([1]; strain 3085, LEV^S RIF^S): 0.015 µg/mL (≈ 0.0124 µM)
MIC ([1]; strain 3090, LEV^R RIF^S): 0.015 µg/mL (≈ 0.0124 µM)
MIC ([1]; strain 3094, LEV^R RIF^S): 0.015 µg/mL (≈ 0.0124 µM)
MIC ([1]; strain 3098, LEV^S RIF^S): 0.015 µg/mL (≈ 0.0124 µM)
MIC ([1]; strain 3265, LEV^R RIF^S): 0.015 µg/mL (≈ 0.0124 µM)
MIC ([1]; strain 3266, LEVR RIFS): 0.015 µg/mL (≈ 0.0124 µM)
MIC ([1]; strain 3270, LEV^R RIF^S): 0.015 µg/mL (≈ 0.0124 µM)
MIC ([1]; strain 3271, LEV^R RIF^S): 0.015 µg/mL (≈ 0.0124 µM)
MIC ([1]; strain 3277, LEV^S RIF^S): 0.015 µg/mL (≈ 0.0124 µM)
MIC ([1]; strain 3278, LEV^S RIF^S): 0.015 µg/mL (≈ 0.0124 µM)
MIC ([1]; strain 6312, LEV^R RIF^S): 0.015 µg/mL (≈ 0.0124 µM)
MIC ([1]; strain 6313, LEV^R RIF^S): 0.015 µg/mL (≈ 0.0124 µM)
MIC ([1]; strain 6315, LEV^R RIF^S): 0.015 µg/mL (≈ 0.0124 µM)
MIC ([1]; strain 6498, LEV^R RIF^S): 0.015 µg/mL (≈ 0.0124 µM)
MIC ([1]; strain 6501, LEV^R RIF^S): 0.015 µg/mL (≈ 0.0124 µM)
MIC ([1]; strain 6505, LEV^R RIF^S): 0.015 µg/mL (≈ 0.0124 µM)
MIC ([1]; strain 7771, LEV^R RIF^S): 0.015 µg/mL (≈ 0.0124 µM)
MIC ([1]; strain 7772, LEV^S RIF^S): 0.015 µg/mL (≈ 0.0124 µM)
MIC ([1]; strain 7773, LEV^R RIF^S): 0.015 µg/mL (≈ 0.0124 µM)
MIC ([1]; strain 7774, LEV^R RIF^S): 0.015 µg/mL (≈ 0.0124 µM)
MIC ([1]; strain 7775, LEV^R): 0.015 µg/mL (≈ 0.0124 µM)
MIC [2]: 0.015 µg/mL (≈ 0.0124 µM)
spontaneous mutants / development of drug resistance (in words) ([3]; four MRSA isolates, 0.5, 2 or 8 μg/mL): No spontaneous mutants are recovered; also recorded: none of the four MRSA strains under test develops drug resistance
Cell counts (mean) ([3]; isolate 3265, drug 0.5 μg/mL): 1^1
Cell counts (mean) ([3]; isolate 3265, drug 2 μg/mL): 1
Cell counts (mean) ([3]; isolate 3265, drug 8 μg/mL): 1
Cell counts plate A [3, 5]: 0
Cell counts plate B [3, 5]: 0
Mutation frequency [3, 5]: <1.85E−10
Cell counts plate A [3, 6]: 0
Cell counts plate B [3, 6]: 0
Mutation frequency [3, 6]: <1.85E−10
Cell counts plate A [3, 7]: 0
Cell counts plate B [3, 7]: 0
Mutation frequency [3, 7]: <1.85E−10
Cell counts (mean) ([3]; isolate 3270, drug 0.5 μg/mL): 1
Cell counts (mean) ([3]; isolate 3270, drug 2 μg/mL): 1
Cell counts (mean) ([3]; isolate 3270, drug 8 μg/mL): 1
Cell counts plate A [3, 8]: 0
Cell counts plate B [3, 8]: 0
Mutation frequency [3, 8]: <1.89E−10
Cell counts plate A [3, 9]: 0
Cell counts plate B [3, 9]: 0
Mutation frequency [3, 9]: <1.89E−10
Cell counts plate A [3, 10]: 0
Cell counts plate B [3, 10]: 0
Mutation frequency [3, 10]: <1.89E−10
Cell counts (mean) ([3]; isolate 3278, drug 0.5 μg/mL): 1
Cell counts (mean) ([3]; isolate 3278, drug 2 μg/mL): 1
Cell counts (mean) ([3]; isolate 3278, drug 8 μg/mL): 1
Cell counts plate A [3, 11]: 0
Cell counts plate B [3, 11]: 0
Mutation frequency [3, 11]: <2.63E−10
Cell counts plate A [3, 12]: 0
Cell counts plate B [3, 12]: 0
Mutation frequency [3, 12]: <2.63E−10
Cell counts plate A [3, 13]: 0
Cell counts plate B [3, 13]: 0
Mutation frequency [3, 13]: <2.63E−10
Cell counts (mean) ([3]; isolate 6312, drug 0.5 μg/mL): 1
Cell counts (mean) ([3]; isolate 6312, drug 2 μg/mL): 1
Cell counts (mean) ([3]; isolate 6312, drug 8 μg/mL): 1
Cell counts plate A [3, 14]: 0
Cell counts plate B [3, 14]: 0
Mutation frequency [3, 14]: <2.56E−10
Cell counts plate A [3, 15]: 0
Cell counts plate B [3, 15]: 0
Mutation frequency [3, 15]: <2.56E−10
Cell counts plate A [3, 16]: 0
Cell counts plate B [3, 16]: 0
Mutation frequency [3, 16]: <2.56E−10
MIC [4]: 0.25 µg/mL (≈ 0.207 µM)
